Results on 2 substances are retold here after US11052131B2, “Methods and pharmaceutical compositions for the treatment of kidney cancer” (INSERM (Institut National de la Santé et de la Recherche …, priority 2016, dated 2021).

In assay [1] the test system is ERK signaling. The assay can be described thus: mTOR signalling pathway in serum-starved RENCA cells: ERK signaling. The settings on record: lentiviral expression in RENCA cells, serum starvation. It is filed as cell-based, murine. The protocol: (§1) RENCA cells overexpressing lentivirus encoding for wild type proEla, mutant proEla, or only tdTomato, were maintained in serum free media for different time. Cells were lysed in RIPA buffer (150 mM NaCl, 50 mM Tris, 1 mM EDTA, 1% NP40, 0.25% sodium deoxycholate, pH8) and were subjected to SDS-PAGE on 12% gels. Cell lysates were analyzed by western blotting for LC3, NFkB, Erk1/2, AKT, S6K or actin using anti phosphor NFkB, anti-phospho Erk, anti-phospho-Akt, anti-phospho S6K. The blots were stripped and reprobed with ERK, AKT or P70 (Cell Signaling) for data normalization. Primary antibodies were visualized using horseradish peroxidase-conjugated secondary antibodies (Amersham), and signals were detected using ECLPlus chemiluminescence system according to the manufacturers' instructions (Amersham).
(§2) To evaluate the role of Elabela on kidney cancer progression, we used RENCA cells expressing elabela or elabela mutated at the furin site. Cells wera starved of serum for 1, 3, 6, 12 or 24 hours and the effect of Elabela on the mTOR pathway was observed by lookind at the phosphorylation or nfkB, Erk1/2, akt, or S6K.

The test system of assay [2] is Renca cells. Nature of the assay: Proliferation assay (IncuCyte ZOOM live cell imaging). It is filed as cell-based, murine. Particulars: 2% foetal calf serum, 50 hours. On the procedure:
FIG. 8. RENCA (20,000 cells 4 cells/well) cells were plated in 96-well plates, proliferation assay was performed using the IncuCyte ZOOM™ live cell imaging system (Essen BioScience, MI USA). This system measures cell density. Cells are routinely propagated in RPMI 1640 medium (Life Technologies) in 2% foetal calf serum at 37° C. Cells are regularly screened for Mycoplasma (ATCC). The plate is placed into the IncuCyte ZOOM™ apparatus and images of the collective cell spreading are recorded every 2 hours for a total duration of 50 hours.

Assay [3] concerns LC3II. Nature of the assay: mTOR signalling pathway in serum-starved RENCA cells: autophagy (LC3II). It is filed as cell-based, murine. Particulars: lentiviral expression in RENCA cells, serum starvation. The protocol: as §1, §2
The test system of assay [4] is mTORC2 signaling. Nature of the assay: mTOR signalling pathway in serum-starved RENCA cells: mTORC2 (P(473)AKT). Particulars: lentiviral expression in RENCA cells, serum starvation. It is filed as cell-based, murine. The protocol: as §1, §2
Assay [5] relates to Renca cells. Nature of the assay: Kidney tumor progression, subcapsular inoculation of Renca cells in syngenic mice. The settings on record: Renca cells expressing the construct (lentiviral), sub-capsular injection. It is filed as in vivo. The source says: FIG. 3. Effect of Elabela expression in the kidney tumor cells (Renca) on kidney tumor progression. Elabela wild type (ela wt) or control lentivirus were used to express ela wt in Renca cells prior their subcapsular inoculation in syngenic mice.

For assay [6], the system named is PI3K signaling. Nature of the assay: mTOR signalling pathway in serum-starved RENCA cells: PI3K (P(308)AKT). The settings on record: lentiviral expression in RENCA cells, serum starvation. It is filed as cell-based, murine. On the procedure: as §1, §2
The test system of assay [7] is Renca cells. Nature of the assay: Wound healing assay. The assay is classed as cell-based, murine. Particulars: in vitro, 8 or 24 h after serum starvation. The protocol:
Renca cells were cultivated until sub-confluency. A scratch is realized with a tip on each well and the wound healing is observed after 8 or 24 h after serum starvation.

For assay [8], the target named is recombinant human furin (Homo sapiens, UniProt P09958). Nature of the assay: In vitro enzymatic digestion of Ela peptides with furin (western blot). The assay is classed as biochemical. Particulars: furin 0.2×10^−4U, 4 h, western blotting with anti-Ela antibody. On the procedure:
FIG. 4. ProEla processing. […] As assessed by western blotting using an anti-Ela antibody, furin processes the wild-type proEla 32 at the corresponding physiological cleavage sites.
Ela peptides were digested with furin for 4 h as previously described (Sfaxi et al., 2014, Scamuffa et al., 2008) and were subjected to Western blotting analysis.
The generated in vitro enzymatic digestion products were subjected to SDS-polyacrylamide gel electrophoresis in 13% gels. The primary antibody used was an anti-Ela 11 (Eurogentec). Horseradish peroxidase-conjugated secondary antibody and enhanced chemiluminescence (ECL+Plus, Amersham) were used for primary antibody revelation according to the manufacturers' instructions using a Chemiluminescence imaging system (GeneGnome, Syngene) (Sfaxi et al., 2014, Scamuffa et al., 2008).
The cDNA structure of human ELA predicts an 54 amino acids (aa) pre-proEla. Following the removal of the 22 aa of the signal peptide the hormone is released as proEla of 32 aa. […] To study the importance of the proteolytic maturation of […] by the PCs in the mediation of its function we first assessed experimentally proEla 32 processing by furin using an in vitro digestion assay.
(Immunoblotting shows a protein as a band on a membrane.)

Assay [9] relates to mTORC1 pathway. Nature of the assay: mTOR signalling pathway in serum-starved RENCA cells: mTORC1 (S6K and S6 phosphorylation). It is filed as cell-based, murine. The settings on record: lentiviral expression in RENCA cells, serum starvation. On the procedure: as §1, §2
Assay [10] relates to NFkB signaling. The assay can be described thus: mTOR signalling pathway in serum-starved RENCA cells: NFkB. It is filed as cell-based, murine. The settings on record: lentiviral expression in RENCA cells, serum starvation. On the procedure:
as §1, §2

Assay [11] deals with Renca cells. The assay can be described thus: Tumorigenicity assay, Renca cells injected subcutaneously into syngeneic Balb/c mice. Particulars: for tumor growth / tumor progression: 1×10^5 Renca cells stably expressing the construct (lentiviral), subcutaneous, vs control cells with empty vector; for tumor growth inhibition, wild type compared to mutant: subcutaneous Renca tumors, Balb/c mice. The assay is classed as in vivo.

The test system of assay [12] is P70s6K. The assay can be described thus: P70 activation analysis (phospho-P70 western blot) in HEK293A GFP-APJ cells. The assay is classed as cell-based, human. The settings on record: 1 μM, same conditions. On the procedure: (§3) Cells were lysed in RIPA buffer (150 mM NaCl, 50 mM Tris, 1 mM EDTA, 1% NP40, 0.25% sodium deoxycholate, pH8) and were subjected to SDS-PAGE on 12% gels. Cell lysates were analyzed by western blotting for ERK, AKT and P70 phosphorylation using an anti-phospho-ERK; anti-phospho-AKT and anti-phospho-P70 (Cell Signaling), respectively. The blots were stripped and reprobed with ERK, AKT or P70 (Cell Signaling) for data normalization. Primary antibodies were visualized using horseradish peroxidase-conjugated secondary antibodies (Amersham), and signals were detected using ECLPlus chemiluminescence system according to the manufacturers' instructions (Amersham).

Assay [13] concerns ERK. Nature of the assay: ERK activation analysis (phospho-ERK western blot) in HEK293A GFP-APJ cells. It is filed as cell-based, human. Particulars: 1 μM; for phosphorylation of ERK: within 5 min of treatment. On the procedure: as §3
Assay [14] has as its system AKT. Nature of the assay: AKT activation analysis (phospho-AKT western blot) in HEK293A GFP-APJ cells. The assay is classed as cell-based, human. Particulars: 1 μM; for phosphorylation of AKT: seen after 5 min. On the procedure: as §3
Assay [15] concerns the target T1, human GFP-APJ fusion protein (Homo sapiens, UniProt P35414).
T1 construct: expressed in transfected cells
T1 sequence (P35414 1-380): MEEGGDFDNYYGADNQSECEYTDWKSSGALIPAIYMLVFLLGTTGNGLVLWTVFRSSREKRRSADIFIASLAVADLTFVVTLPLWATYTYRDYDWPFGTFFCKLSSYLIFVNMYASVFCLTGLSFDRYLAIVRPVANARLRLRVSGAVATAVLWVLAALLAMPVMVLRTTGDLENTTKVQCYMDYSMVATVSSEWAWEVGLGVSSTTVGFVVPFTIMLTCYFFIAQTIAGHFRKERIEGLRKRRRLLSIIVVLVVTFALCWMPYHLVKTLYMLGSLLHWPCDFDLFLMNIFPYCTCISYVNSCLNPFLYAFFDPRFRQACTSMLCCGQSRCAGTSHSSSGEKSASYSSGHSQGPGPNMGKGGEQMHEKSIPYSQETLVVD
Nature of the assay: APJ receptor internalization assay in HEK293A cells expressing GFP-APJ. The assay is classed as cell-based. Particulars: 1 μM peptide, 30 min, HEK293 cells expressing GFP-APJ. The protocol: Cells were fixed with 4% paraformaldehyde for 10 minutes at room temperature and APJ receptor internalization was analyzed using a Nikon epifluorescence microscopy.
Ligand-induced receptor internalization is a cellular response of APJ to ligand binding and its activation.

“Also recorded” adds a separate entry of the source.

Sequence of recombinant human furin (P09958 108-794): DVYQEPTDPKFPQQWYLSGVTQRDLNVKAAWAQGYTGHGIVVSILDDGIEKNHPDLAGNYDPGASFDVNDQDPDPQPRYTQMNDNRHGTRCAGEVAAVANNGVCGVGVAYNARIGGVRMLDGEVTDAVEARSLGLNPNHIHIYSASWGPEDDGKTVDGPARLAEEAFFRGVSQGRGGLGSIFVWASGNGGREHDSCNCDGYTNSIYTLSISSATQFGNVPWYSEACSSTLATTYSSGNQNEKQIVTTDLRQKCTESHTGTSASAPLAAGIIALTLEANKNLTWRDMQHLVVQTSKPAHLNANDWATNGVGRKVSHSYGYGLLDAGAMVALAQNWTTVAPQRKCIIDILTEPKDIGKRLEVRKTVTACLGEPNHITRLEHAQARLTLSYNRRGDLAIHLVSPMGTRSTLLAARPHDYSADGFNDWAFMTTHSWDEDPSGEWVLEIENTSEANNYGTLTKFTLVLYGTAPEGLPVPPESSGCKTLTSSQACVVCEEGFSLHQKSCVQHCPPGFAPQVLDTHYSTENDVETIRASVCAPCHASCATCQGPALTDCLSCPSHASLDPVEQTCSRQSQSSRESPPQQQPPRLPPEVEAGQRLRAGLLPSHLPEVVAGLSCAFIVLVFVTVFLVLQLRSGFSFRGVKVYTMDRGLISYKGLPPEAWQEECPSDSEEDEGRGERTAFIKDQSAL

With “QRPVNLTMRRKLRKHNCLQRRCMPLHSRVPFP [wild type proEla 32]”, the “ERK signaling, determined by ERK phosphorylation” value in assay [1] is reported as “enhanced inhibition of ERK signaling”. Also, the cells proliferation result in assay [2] is reported as “inhibits renca cells proliferation”. The “induction of autophagy, estimated by LC3II levels” value in [3] is “block in the induction of autophagy”. Also, in [4], the “mTORC2 signaling, determined by P(473)AKT” value is “No effect in mTORC2 signaling”. Moreover, the tumor progression entry in assay [5] is given as “inhibits tumor progression”. For the same substance, the “PI3K signaling, determined by P(308)AKT” value in [6] was “No effect in PI3K signaling”. For the same substance, in assay [7], the “wound healing of Renca cells” value is “inhibits wound healing of Renca cells”. In addition, the “processing by furin, products generated” value is recorded as “generated predominantly the mature Ela 11 aa” in [8] (listed as wild type proEla) and “generates only the Ela 11 aa” in assay [8] (listed as wild-type proEla 32). The “mTORC1 pathway, determined by S6K and S6 phosphorylation” value in assay [9] (listed as WT) was “sustained activation of mTORC1 pathway; also recorded: induced mTORC1 activation”. The NFkB signaling entry in assay [10] was “No effect in NFkB signaling”. Moreover, the “tumor growth / tumor progression” value in assay [11] (listed as Ela) is “inhibits tumor progression”; in assay [11] (listed as wild type proEla), “smaller size of tumors”; in [11] (listed as wild-type proEla 32) it was “reduced significantly tumor growth”. For the same substance, the “tumor growth inhibition, wild type compared to mutant” value in assay [11] was “inhibit more efficiently tumor growth while compared to mutant proEla 32”; in [11] (listed as Wild type proEla 32), “inhibited more efficiently tumor growth while compared to mutant pro Ela 32”. For the same substance, the P70s6K activation entry in assay [12] is on record as “failed to induce significant effect”. Besides, the “phosphorylation of ERK after 15 min” value in assay [13] is “reduced”. Also, in [13] (same conditions), the “ERK activation compared between the peptides” value was “higher as compared to mut proEla and Ela 11 effect”. Besides, in [13], the “phosphorylation of ERK” value is “able to induce the phosphorylation of ERK”. Also, the “AKT activation compared to effect on ERK activation” value in [14] is recorded as “lower AKT activation while compared to their effect on ERK activation”. Besides, the “time of peak AKT phosphorylation” value in assay [14] is recorded as “about 15 min”. Further, the “phosphorylation of AKT” value in assay [14] is “weak visible phosphorylation of AKT”.
For “mutant proEla 32: proEla 32 in which cleavage sites R31/R32 and R42/R43 were replaced by S31/S32 and S42/S43 (positions 9, 10, 20, 21 of SEQ ID NO: 1) (QRPVNLTMSSKLRKHNCLQSSCMPLHSRVPFP; listed as Homo sapiens)”, the “ERK signaling, determined by ERK phosphorylation” value in assay [1] was “enhanced inhibition of ERK signaling”. Further, the “induction of autophagy, estimated by LC3II levels” value in assay [3] was “block in the induction of autophagy”. Besides, the APJ internalization result in assay [15] was “able to activate the APJ receptor and mediate its internalization”. Further, the “mTORC2 signaling, determined by P(473)AKT” value in assay [4] is “No effect in mTORC2 signaling”. Besides, the “PI3K signaling, determined by P(308)AKT” value in assay [6] was “No effect in PI3K signaling”. Also, the “processing by furin, products generated” value in [8] (listed as mut proEla 32) was “failed to generate any products”. In addition, the “processing by furin, products generated” value in assay [8] (listed as mutant peptide ProEla 32) is given as “failed to generate any mature Ela products”. Moreover, the “mTORC1 pathway, determined by S6K and S6 phosphorylation” value in assay [9] (listed as MUT) was “sustained activation of mTORC1 pathway; also recorded: induced mTORC1 activation”. Further, the NFkB signaling entry in assay [10] is “No effect in NFkB signaling”. For the same substance, the “tumor growth / tumor progression” value in [11] is listed as “reduced significantly tumor growth”. Moreover, the “tumor growth / tumor progression” value in assay [11] (listed as mut ProEla) was “smaller size of tumors”. For the same substance, in [11] (listed as mutant ELA polypeptide), the “tumor growth / tumor progression” value is on record as “capable of inhibiting tumor progression”. Besides, the P70s6K activation result in [12] is “failed to induce significant effect”. Also, in [13], the “phosphorylation of ERK after 15 min” value is “reduced” and the “phosphorylation of ERK” value is given as “able to induce the phosphorylation of ERK”. For the same substance, in assay [14], the “AKT activation compared to effect on ERK activation” value is “lower AKT activation while compared to their effect on ERK activation”, the “time of peak AKT phosphorylation” value is on record as “about 15 min” and the “phosphorylation of AKT” value was “weak visible phosphorylation of AKT”.
